Tests used:
Details in all cases: treatment: drug + dasatinib (fixed dose, not stated); 5 days
CAKI-1 [1] = experiment: AUC of dose-response viability curve, drug + dasatinib, normalised to DMSO (arbitrary (AUC of normalised viability)); higher = less growth inhibition
Method: (§1)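 Primary HTS combination arm: 8 RCC cell lines treated with 8 doses (up to 10 uM) of each library drug plus a fixed dose of dasatinib (dose not stated) for 5 days; viability read by CellTiter-Glo and normalised to DMSO. GI50 was fitted with XLfit, AUC is the area under the dose-response curve, and minimum viability is the lowest fraction of DMSO viability across doses.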

ACHN [2] = experiment: as above
Method: as §1

UO-31 [3] = experiment: as above
Method: as §1

TK-10 [4] = experiment: as above
Method: as §1

786-O [5] = experiment: as above
Method: as §1

A498 [6] = experiment: as above
Method: as §1

769-P [7] = experiment: as above
Method: as §1

SN12C [8] = experiment: as above
Method: as §1

CAKI-1 [9] = experiment: GI50 of drug in presence of dasatinib; higher = less potent
Method: as §1

ACHN [10] = experiment: as above
Method: as §1

UO-31 [11] = experiment: as above
Method: as §1

TK-10 [12] = experiment: as above
Method: as §1

A498 [13] = experiment: as above
Method: as §1

769-P [14] = experiment: as above
Method: as §1

SN12C [15] = experiment: as above
Method: as §1

CAKI-1 [16] = experiment: minimum viability across doses, drug + dasatinib, relative to DMSO (fraction); higher = less growth inhibition
Method: as §1

ACHN [17] = experiment: as above
Method: as §1

UO-31 [18] = experiment: as above
Method: as §1

TK-10 [19] = experiment: as above
Method: as §1

786-O [20] = experiment: as above
Method: as §1

A498 [21] = experiment: as above
Method: as §1

769-P [22] = experiment: as above
Method: as §1

SN12C [23] = experiment: as above
Method: as §1

786-O [24] = experiment: GI50 of drug in presence of dasatinib; higher = less potent
Method: as §1

SMILES	AUC of dose-response viability curve (CAKI-1 [1])	AUC of dose-response viability curve (ACHN [2])	AUC of dose-response viability curve (UO-31 [3])	AUC of dose-response viability curve (TK-10 [4])	AUC of dose-response viability curve (786-O [5])	AUC of dose-response viability curve (A498 [6])	AUC of dose-response viability curve (769-P [7])	AUC of dose-response viability curve (SN12C [8])	GI50 of drug (CAKI-1 [9]) [µM]	GI50 of drug (ACHN [10]) [µM]	GI50 of drug (UO-31 [11]) [µM]	GI50 of drug (TK-10 [12]) [µM]	GI50 of drug (A498 [13]) [µM]	GI50 of drug (769-P [14]) [µM]	GI50 of drug (SN12C [15]) [µM]	minimum viability across doses (CAKI-1 [16])	minimum viability across doses (ACHN [17])	minimum viability across doses (UO-31 [18])	minimum viability across doses (TK-10 [19])	minimum viability across doses (786-O [20])	minimum viability across doses (A498 [21])	minimum viability across doses (769-P [22])	minimum viability across doses (SN12C [23])	GI50 of drug (786-O [24]) [µM]
O=C1NC(=O)/C(=C/c2ccc(-c3ccc(F)cc3O)o2)S1 + Cc1nc(Nc2ncc(C(=O)Nc3c(C)cccc3Cl)s2)cc(N2CCN(CCO)CC2)n1 [dasatinib]	2.4	2.15	3.97	2.51	2.08	3.96	2.41	2.41	> 10	> 10	> 10	> 10	> 10	> 10	> 10	0.628	0.567	1.02	0.649	0.449	1.06	0.532	0.651	–
C=CC(=O)Nc1cccc(Oc2nc(Nc3ccc(N4CCN(C)CC4)cc3OC)ncc2Cl)c1 [WZ4002] + Cc1nc(Nc2ncc(C(=O)Nc3c(C)cccc3Cl)s2)cc(N2CCN(CCO)CC2)n1 [dasatinib]	1.87	1.37	2.67	1.97	2.22	3.2	2.02	2.29	1.18	0.0748	1.34	0.617	9.59	–	2.42	0.145	0.0147	0.0152	0.0404	0.405	0.459	0.2	0.0353	2.49
CNC(=O)c1cc(Oc2ccc(NC(=O)Nc3ccc(Cl)c(C(F)(F)F)c3)c(F)c2)ccn1 [Regorafenib (BAY 73-4506)] + Cc1nc(Nc2ncc(C(=O)Nc3c(C)cccc3Cl)s2)cc(N2CCN(CCO)CC2)n1 [dasatinib]	2.24	2.05	2.77	2.45	2.26	3.1	2.3	2.47	2.98	3.32	4.41	5.85	2.67	4.04	7.18	0.125	0.153	0.122	0.415	0.471	0.415	0.37	0.434	–
